Experimental data taken from publication PMC11459172 (Proceedings of the National Academy of Sciences of the …, 2024).

How the values were obtained:
PARP1/2 = assay type: cell-based, human; conditions: TruHD fibroblasts, HD vs control; as Fig 3B; SI Fig S6C
PARG = PARG (Homo sapiens, UniProt Q86W56); assay type: cell-based; conditions: TruHD fibroblasts, HD vs control
[1] = Fluorescence polarization with FAM-labeled 11-mer or 26-mer PAR; assay type: binding; conditions: 25 nM FAM-labeled PAR, up to 10 μM protein
PARP1 = PARP1 (Homo sapiens, UniProt P09874); assay: In vitro PARP1 autoPARylation reaction with recombinant HTT-HAP40, western blot; assay type: biochemical; conditions: 10 fmol recombinant PARP1, 2 h at 30 °C, increasing amounts of HTT-HAP40
PARP1, sequence (P09874 whole entry): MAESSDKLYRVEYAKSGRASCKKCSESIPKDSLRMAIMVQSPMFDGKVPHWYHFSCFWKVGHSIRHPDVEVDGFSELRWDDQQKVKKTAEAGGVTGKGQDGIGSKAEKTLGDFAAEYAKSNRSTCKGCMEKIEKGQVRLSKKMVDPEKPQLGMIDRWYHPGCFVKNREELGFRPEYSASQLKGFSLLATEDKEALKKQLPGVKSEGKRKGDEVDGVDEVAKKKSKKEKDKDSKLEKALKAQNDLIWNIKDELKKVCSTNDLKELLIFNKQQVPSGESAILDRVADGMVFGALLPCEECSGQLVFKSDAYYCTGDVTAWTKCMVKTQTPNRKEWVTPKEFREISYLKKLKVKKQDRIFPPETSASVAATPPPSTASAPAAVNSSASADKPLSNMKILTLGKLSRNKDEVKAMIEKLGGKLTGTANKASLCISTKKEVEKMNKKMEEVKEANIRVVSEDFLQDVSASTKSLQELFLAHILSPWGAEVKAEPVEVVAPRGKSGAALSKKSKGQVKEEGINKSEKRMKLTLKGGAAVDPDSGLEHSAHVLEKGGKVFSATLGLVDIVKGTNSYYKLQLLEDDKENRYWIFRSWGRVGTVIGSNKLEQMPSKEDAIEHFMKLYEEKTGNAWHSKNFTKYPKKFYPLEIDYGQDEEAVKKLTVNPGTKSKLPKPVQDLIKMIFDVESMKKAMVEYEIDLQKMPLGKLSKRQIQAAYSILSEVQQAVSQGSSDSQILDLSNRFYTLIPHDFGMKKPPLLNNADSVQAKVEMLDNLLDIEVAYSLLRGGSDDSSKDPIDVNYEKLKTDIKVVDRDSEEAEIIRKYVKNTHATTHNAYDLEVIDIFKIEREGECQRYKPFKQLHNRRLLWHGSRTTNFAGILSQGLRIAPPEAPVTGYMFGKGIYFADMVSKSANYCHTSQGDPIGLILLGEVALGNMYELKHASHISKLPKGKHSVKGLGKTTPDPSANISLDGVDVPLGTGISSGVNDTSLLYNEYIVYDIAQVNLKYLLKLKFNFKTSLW

PARG, sequence (Q86W56 whole entry): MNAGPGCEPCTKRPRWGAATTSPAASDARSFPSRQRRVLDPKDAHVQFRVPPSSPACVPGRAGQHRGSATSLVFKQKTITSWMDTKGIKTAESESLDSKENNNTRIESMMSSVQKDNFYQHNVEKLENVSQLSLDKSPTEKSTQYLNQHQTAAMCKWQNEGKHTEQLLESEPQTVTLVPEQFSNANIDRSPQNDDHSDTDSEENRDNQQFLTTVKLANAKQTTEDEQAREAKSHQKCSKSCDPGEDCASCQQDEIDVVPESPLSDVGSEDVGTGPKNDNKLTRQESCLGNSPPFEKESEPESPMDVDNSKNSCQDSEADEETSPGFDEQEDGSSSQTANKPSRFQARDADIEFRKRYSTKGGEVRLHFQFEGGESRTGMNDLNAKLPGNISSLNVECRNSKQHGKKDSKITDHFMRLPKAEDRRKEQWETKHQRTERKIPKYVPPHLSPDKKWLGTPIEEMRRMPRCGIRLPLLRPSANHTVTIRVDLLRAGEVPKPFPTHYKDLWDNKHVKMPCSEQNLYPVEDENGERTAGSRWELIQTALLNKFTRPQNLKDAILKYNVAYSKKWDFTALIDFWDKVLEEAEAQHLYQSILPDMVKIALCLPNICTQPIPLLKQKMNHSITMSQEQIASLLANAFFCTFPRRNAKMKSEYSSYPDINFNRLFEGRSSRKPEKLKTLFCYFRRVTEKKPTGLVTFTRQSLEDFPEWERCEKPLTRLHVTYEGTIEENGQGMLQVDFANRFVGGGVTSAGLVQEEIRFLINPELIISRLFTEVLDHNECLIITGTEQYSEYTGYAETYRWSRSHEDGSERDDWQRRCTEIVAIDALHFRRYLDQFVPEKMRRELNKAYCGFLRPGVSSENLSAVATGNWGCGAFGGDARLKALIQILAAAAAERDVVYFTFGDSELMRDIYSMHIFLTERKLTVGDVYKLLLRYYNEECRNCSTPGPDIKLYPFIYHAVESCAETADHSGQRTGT

For `Cn1ncnc1[C@H]1c2n[nH]c(=O)c3cc(F)cc(c23)N[C@@H]1c1ccc(F)cc1` [talazoparib], the “PARP inhibitor IC50, HD cells compared to controls” value (PARP1/2) was “reduced IC50 in HD cells”.
With PDD00017273 the “PARG inhibitor IC50, HD compared to control cells” value (PARG) was “no difference between HD and control cells”.
In the case of “wild-type HTT: purified recombinant wild-type huntingtin in complex with HAP40, Q23”, the “PAR binding by fluorescence polarization” value ([1]; listed as HTT) is reported as “binds long (26-mer) PAR chains, in preference to shorter (11-mer) substrates”, the “PAR binding by fluorescence polarization” value ([1]; listed as HTT-HAP40 Q23) is reported as “lower binding than the positive control PAR-binding protein HUWE1, but higher binding than the negative control non-PAR-binding protein USP5” and the “Effect on PARP1 autoPARylation activity” value (PARP1) is reported as “stimulated PARP1 activity in a dose-dependent manner”.
